Measured values as given in the NIST ThermoML archive (doi:10.1016/j.jct.2004.07.010).
Numbers after ± are expanded uncertainties.

Assays:
[1] = refractive index (Na D-line) (dimensionless); conditions: 293.15 K; 101.33 kPa; Liquid; Standard Abbe refractometry
[2] = 298.15 K, 101.33 kPa, Liquid

Structure (SMILES) | refractive index [1] | mass density [2] | mass density ([2]; Vibrating tube method)
C=Cc1ccccc1 [styrene] | 1.546 ± 0.0007 | 901.51 ± 0.31 kg/m3 | 
O=C1CCCCC1 [cyclohexanone] | 1.4507 ± 0.0007 |  | 941.7 ± 0.11 kg/m3
c1ccccc1 [benzene] | 1.5009 ± 0.0007 | 873.56 ± 0.35 kg/m3 | 
Cc1ccccc1 [toluene] | 1.4965 ± 0.0008 | 862.14 ± 0.94 kg/m3 | 
CCc1ccccc1 [ethylbenzene] | 1.4962 ± 0.0008 |  | 862.44 ± 0.55 kg/m3
